# Test results as given in publication PMC8692993, “PPARα and PPARγ activation is associated with pleural mesothelioma invasion but therapeutic inhibition is ineffective” (iScience, 2021).
# Tests used:
# [1] = Mouse pharmacokinetic study, plasma exposure after IP dosing; type: in vivo, BALB/c mice; conditions: IP 10 mg/kg; for Cmax / Plasma AUC0–24 h: female BALB/c mice
# Procedure: Pharmacokinetic animal studies were conducted using established procedures in accordance with the Australian Code of Practice for the Care and Use of Animals for Scientific Purposes, and the study protocols were reviewed and approved by the Monash Institute of Pharmaceutical Sciences Animal Ethics Committee. The systemic exposure of GW6471 was studied in non-fasted female BALB/c mice (5 - 8 weeks) weighing 15.2–22.6 g. Mice had access to food and water ad libitum throughout the pre- and post-dose sampling period. GW6471 (10 mg/kg) was dosed to all mice via a single intraperitoneal (IP) injection (5 mL/kg). For the ABT pre-treated group, ABT was pre-dosed to animals at 50 mg/kg via IP injection (5 mL/kg) 2 h prior to administration of GW6471. Following IP administration of GW6471, blood samples were collected up to 24 h at indicated time points (n = 3 mice per time point) with a maximum of three samples from each mouse. Blood samples were collected via submandibular bleed (approximately 120 μL) into polypropylene Eppendorf tubes containing heparin as anticoagulant and stabilisation cocktail (containing the protease inhibitor cocktail Complete® and KF) to minimise the potential for ex vivo compound degradation in blood/plasma samples. Once collected, blood samples were centrifuged immediately, supernatant plasma was removed, and stored at−80°C until analysis by liquid chromatography-mass spectrometry (LC–MS). The plasma concentration versus time profile was defined by the average plasma concentration at each sample time, and PK parameters were calculated using non-compartmental methods (PKSolver Version 2.0).
# Compound quantification was performed using a Xevo G2 QTOF (in vitro metabolic stability) using positive electrospray ionisation under MS^E mode or a Waters Xevo TQD (mouse exposure) mass spectrometer using positive electrospray ionisation multiple-reaction monitoring mode. Compounds were eluted using an acetonitrile-water/0.05% formic acid gradient at a flow rate of 0.4 mL/min operating over a 4 min cycle on a Waters Acquity UPLC using a Supelco Ascentis Express RP C8 column (50 × 2.1 mm, 2.7 μm). Extraction was performed by precipitation using acetonitrile (1:1 volume ratio for microsomes and 2:1 volume ratio for plasma samples) followed by centrifugation. Compound concentrations were quantified against calibration standards prepared in an appropriate matrix to match the test samples (e.g. plasma or microsomes).
# ABT Formulation: On the evening prior to dosing, ABT was dissolved in a 0.9% (w/v) saline using vortexing and sonicating, resulting in a colourless solution. The nominal concentration of ABT in the formulation was 10 mg/mL. GW6471 Formulation: The final drug contains 40% final volume of PEG400 (Kollisolv PEG E 400, Sigma Aldrich), and 60% final volume of Solutol HS-15 (Kolliphor HS-15, Sigma Aldrich). Solutol is previously mixed in a saline solution (12.5% concentration). On the day of dosing, the solid GW6471 was first dissolved in PEG400by thoroughly vortexing and sonicating for 5 min. Then, the saline solution containing Solutol HS-15 12.5% was added. Again, the formulation was then thoroughly vortexed and sonicated to produce a hazy pale yellow suspension with an apparent pH of 3.4. The nominal concentration of GW6471 in the formulation was 2 mg/mL. […] The dose administered to each mouse was calculated on the basis of the mouse body weight (determined prior to dosing).
# PPARγ = molecular target: T1, PPARγ (Homo sapiens, UniProt P37231); test: LanthaScreen TR-FRET binding assay, PPARγ; conditions: 2 h incubation, mean of 3 replicates ± SEM
# T1 sequence (P37231 238-503 limits assumed): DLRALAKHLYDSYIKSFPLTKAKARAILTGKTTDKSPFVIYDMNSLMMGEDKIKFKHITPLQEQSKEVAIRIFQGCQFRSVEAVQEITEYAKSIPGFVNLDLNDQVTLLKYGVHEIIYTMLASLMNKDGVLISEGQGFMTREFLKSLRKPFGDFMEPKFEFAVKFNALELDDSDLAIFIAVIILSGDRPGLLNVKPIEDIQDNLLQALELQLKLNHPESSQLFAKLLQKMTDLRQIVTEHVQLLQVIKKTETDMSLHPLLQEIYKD
# Procedure: The LanthaScreen™ TR-FRET binding assay was performed following the manufacturer's guidelines (PV4894, Invitrogen) as follows, 20 mM stock solution of the ligand or control in DMSO were serially diluted using 100% DMSO to produce a range of concentrations from 100 μM to 1 pM. The test compound solutions were mixed with the reaction buffer in a 1 (ligand) in 10 (reaction buffer) dilution for a final 2X ligand concentration. This was mixed with the reaction components (glutathione S-transferase (GST)-PPPARγLBD (0.5 nM)/, terbium (Tb)-labelled anti-GST antibody (5 nM) and Fluormone pan-PPAR green (5 nM for PPARγ; 20 nM for PPARα) at room temperature in a ratio of 8 μLl 2X ligand solution: 4 μLl of 4XFluormone: and 4 μLl 4X GST-PPPARγLBD/terbium (Tb)-labelled anti-GST antibody to produce a final reaction mixture volume of 16 μL. The concentration of DMSO in the final reaction mixture was 5%. The reaction mixture was kept at room temperature for 2 h prior to recording the TR-FRET emission spectra using a CLARIOstar Plus microplate reader (BMG Labtech). […] Results are expressed as the ratio of fluorescence intensity at 520 nm (Fluormone emission) and 490 nm (Tb emission). […] For each compound three serial dilutions were prepared and measured separately. The IC50 and SEM values were determined using a sigmoidal dose-response equation with varying slope using GraphPad Prism.
# AB1 = test: MTT cell metabolic activity assay, AB1; type: cell-based, mouse; conditions: AB1, 48 h, 0.391-100 μM; effect at higher micromolar concentrations
# Procedure: Cells were harvested and seeded in 96-flat well plates (Corning) at a density of 5 x 10^4 cells/mL overnight. Media was removed and 100 μL media with GW6471 or GW9662 at indicated concentrations was added to each well. Cell viability and toxicity were measured at 48 h. Cells were incubated with 50 μL of a 2 mg/mL solution of (3-(4,5-dimethyl-thiazole-2-yl)-2,5-[…] tetrazolium (MTT, Sigma-Aldrich) in PBS for 4 h and then exposed to 100 μL dimethyl sulfoxide (DMSO; Sigma-Aldrich). Cell viability was measured by absorption at 570 nm in a microplate spectrophotometer (Spectromax 250 plate reader). Results are shown as relative cell viability.
# renal cell carcinoma = system: renal cell carcinoma; set-up: method as in Abu Aboud et al., 2015; conditions: 20 mg/kg; ref Abu Aboud et al., 2015; cited from earlier work
# [2] = ABT 50 mg/kg IP 2 h before (ABT + GW6471)
smiles,measurement,setting,value
CCC(=O)NC[C@H](Cc1ccc(OCCc2nc(-c3ccccc3)oc2C)cc1)N/C(C)=C\C(=O)c1ccc(C(F)(F)F)cc1 [GW6471],Increase of plasma concentration with ABT pre-treatment (based on AUC and Cmax),[1]; ABT pre-treatment versus none,approximately 3 fold
same,Cmax,[1]; [2],3600 nM
same,Plasma AUC0–24 h,[1]; [2],31.4 h∗μM
same,Cmax,[1]; without ABT,1180 nM
same,Plasma AUC0–24 h,[1]; without ABT,9.81 h∗μM
same,IC50,PPARγ,39.4 ± 18.2 nM
same,Cell viability (MTT),AB1,lowered viability
same,Tumor reduction in vivo,renal cell carcinoma,significant tumor reduction
